Results published in ChEMBL document CHEMBL5120922, “Discovery, Optimization, and Evaluation of Potent and Selective PI3Kδ-γ Dual Inhibitors for the Treatment of B-cell Malignancies” (J Med Chem, 2022).
Activity calls are given as the source filed them. The calls are words filed in the database; no cut-off is given here.

Legend:
[1] = Volume of distribution at steady state in Sprague-Dawley rat at 2 mg/kg, iv measured upto 24 hrs by LC-MS/MS analysis; format: ADME, organism-based; conditions: in vivo, read-out: Vdss
[2] = Tmax in Sprague-Dawley rat at 2 mg/kg, iv measured upto 24 hrs by LC-MS/MS analysis; format: ADME, organism-based; conditions: in vivo
SU-DHL-6 [3] = assay: Induction of cell cycle arrest in human SU-DHL-6 cells assessed as accumulation of cells at G0/G1 phase at 0.5 uM incubated for 24 hrs in presence of ibrutinib by PI staining based FACScan flow cytometry analysis (reference value: 55.61 %); format: functional
DOHH-2 [4] = assay: Induction of apoptosis in human DOHH-2 cells assessed as viable cells at 2 uM incubated for 48 hrs in presence of ibrutinib by annexin V-FITC and PI staining based flow cytometry analysis (reference value: 95.4 %); format: functional; conditions: read-out: Activity
DOHH-2 [5] = assay: Induction of apoptosis in human DOHH-2 cells assessed as viable cells at 2 uM incubated for 48 hrs by annexin V-FITC and PI staining based flow cytometry analysis (reference value: 95.4 %); format: functional; conditions: read-out: Activity
SU-DHL-6 [6] = assay: Antitumor activity against human SU-DHL-6 cells xenografted in NOD/SCID mouse assessed as reduction in tumor volume at 10 mg/kg, po measured every 2 days in presence of ibrutinib; format: functional, organism-based; conditions: time 2.0 day
DOHH-2 [7] = assay: Induction of cell cycle arrest in human DOHH-2 cells assessed as accumulation of cells at S phase at 0.5 uM incubated for 24 hrs by PI staining based FACScan flow cytometry analysis (reference value: 55.11 %); format: functional
[8] = Tmax in Sprague-Dawley rat at 5 mg/kg, iv measured upto 24 hrs by LC-MS/MS analysis; format: ADME, organism-based; conditions: in vivo
SU-DHL-6 [9] = assay: Induction of apoptosis in human SU-DHL-6 cells assessed as viable cells at 1.5 uM incubated for 48 hrs in presence of ibrutinib by annexin V-FITC and PI staining based flow cytometry analysis (reference value: 87.0 %); format: functional; conditions: read-out: Activity
[10] = AUC(0 to t) in Sprague-Dawley rat at 5 mg/kg, po measured upto 24 hrs by LC-MS/MS analysis; format: ADME, organism-based; parameters: dose 5 mg/kg, time < 24 hrs, route po; conditions: in vivo

Vd [1]: 1.66 L/kg
Tmax [2]: 72 min
Tmax [8]: 4.8 min
AUC(0-t) at 24 h [10]: 8610 ng·h/mL
SMILES: C[C@H]1CC[C@@H](c2nc3cccc(Cl)c3c(=O)n2-c2cccnc2)N1c1nc(N)nc(N)c1C#N
Activity (SU-DHL-6 [3]): 79.73%
viability at 2 µM (DOHH-2 [4]): 23.5%
viability at 2 µM (DOHH-2 [5]): 60.6%
Activity (SU-DHL-6 [6]): Active
Activity (DOHH-2 [7]): 43.53%
viability at 1.5 µM (SU-DHL-6 [9]): 47.1%
